Read-outs that look alike come from different tables or passages of the source. Ends that are not written are not given here.
Assay: PK after single intravenous injection of Peptide 1 in male rats
Parameters: species or system male Wistar (CRL: WI(Han)) rats
Details: rat, in vivo; for clearance / half-life / Vd: iv
Procedure: Peptide 1 in blood samples collected from animals used in the studies (rat and dog) has been measured by an LC-MS/MS method. Analysis of samples collected in the pharmacokinetic study in rats was performed prior to validation of the method. Prior to analysis of samples from the GLP toxicology studies, the method was validated according to GLP to ensure that it is selective, accurate, reproducible, and able to produce reliable results. The method was validated over the range from 0.075 to 25 μg/mL Peptide 1.
The objective of the study was to assess the pharmacokinetic profile of Peptide 1 when administered once by intravenous injection to male Wistar (CRL: WI(Han)) rats at 0.1, 1.0 and 10.0 mg/kg. The number of rats per group was respectively 6, 6 and 8. Blood samples were collected from 3 animals per group at 2, 5, 10, 20, 40 and 60 minutes after dosing; for the animals receiving 10.0 mg/kg, additional samples were taken from 2 animals at 90 and 120 minutes after dosing. The pharmacokinetics were characterised using mean plasma concentration vs. time data. The pharmacokinetic parameters were estimated using Phoenix WinNonlin Version 6.3 pharmacokinetic software.
[…] 26 plasma samples (samples in Group 1 (0.1 mg/kg) obtained 2 minutes post dosing, in Group 2 (1 mg/kg) 2 to 10 minutes post dosing and in Group 3 (10 mg/kg) 2 to 40 minutes post dosing) had concentrations of Peptide 1 above the upper limit of quantification for the bioanalytical method. As a consequence, plasma concentration of Peptide 1 was extrapolated. Plasma samples obtained 60 minutes post dosing in Group 1 had plasma concentration of Peptide 1 below the limit of quantification.

[1] = single IV 0.1 mg/kg, initial elimination phase
[2] = single IV 1.0 mg/kg, initial elimination phase
[3] = single IV 10 mg/kg, initial elimination phase

clearance (0.1 mg/kg, single IV 0.1 mg/kg, initial elimination phase, read-out: CL): 10 mL/min/kg
half-life (0.1 mg/kg, single IV 0.1 mg/kg, initial elimination phase, read-out: T½): 3.49 min
Vd (0.1 mg/kg, single IV 0.1 mg/kg, initial elimination phase, read-out: Vz): 0.0505 L/kg
clearance (0.1 mg/kg, single IV 0.1 mg/kg, terminal elimination phase, read-out: CL): 9.66 mL/min/kg
half-life (0.1 mg/kg, single IV 0.1 mg/kg, terminal elimination phase, read-out: T½): 18.8 min
Vd (0.1 mg/kg, single IV 0.1 mg/kg, terminal elimination phase, read-out: Vz): 0.261 L/kg
clearance (1 mg/kg, single IV 1.0 mg/kg, initial elimination phase, read-out: CL): 8.08 mL/min/kg
half-life (1 mg/kg, single IV 1.0 mg/kg, initial elimination phase, read-out: T½): 3.34 min
Vd (1 mg/kg, single IV 1.0 mg/kg, initial elimination phase, read-out: Vz): 0.0389 L/kg
clearance (1 mg/kg, single IV 1.0 mg/kg, terminal elimination phase, read-out: CL): 8.05 mL/min/kg
half-life (1 mg/kg, single IV 1.0 mg/kg, terminal elimination phase, read-out: T½): 10 min
Vd (1 mg/kg, single IV 1.0 mg/kg, terminal elimination phase, read-out: Vz): 0.116 L/kg
clearance (10 mg/kg, single IV 10 mg/kg, initial elimination phase, read-out: CL): 11.1 mL/min/kg
half-life (10 mg/kg, single IV 10 mg/kg, initial elimination phase, read-out: T½): 7.64 min
Vd (10 mg/kg, single IV 10 mg/kg, initial elimination phase, read-out: Vz): 0.122 L/kg
clearance (10 mg/kg, single IV 10 mg/kg, terminal elimination phase, read-out: CL): 11.1 mL/min/kg
half-life (10 mg/kg, single IV 10 mg/kg, terminal elimination phase, read-out: T½): 10.2 min
Vd (10 mg/kg, single IV 10 mg/kg, terminal elimination phase, read-out: Vz): 0.162 L/kg
clearance (single IV, both phases, range over 0.1-10 mg/kg, read-out: clearance): 8 to 11 mL/min/kg
half-life (single IV, initial phase, range over 0.1-10 mg/kg, read-out: half-life): 3 to 8 min
Vd (single IV, initial phase, range over 0.1-10 mg/kg, read-out: volume of distribution): 0.039 to 0.122 L/kg
half-life (single IV, terminal elimination phase, range over 0.1-10 mg/kg, read-out: half-life): 10 to 19 min
Vd (single IV, terminal phase, range over 0.1-10 mg/kg, read-out: volume of distribution): 0.116 to 0.261 L/kg
AUC(0-t) [1]: 165 ng·h/mL
C0 [1]: 1790 ng/mL
AUC(0-inf) (single IV 0.1 mg/kg, terminal elimination phase): 173 ng·h/mL
AUC(0-t) [2]: 2070 ng·h/mL
C0 [2]: 32500 ng/mL
AUC(0-inf) (single IV 1.0 mg/kg, terminal elimination phase): 2070 ng·h/mL
AUC(0-t) [3]: 14800 ng·h/mL
C0 [3]: 68900 ng/mL
AUC(0-inf) (single IV 10 mg/kg, terminal elimination phase): 15000 ng·h/mL
Substance: AMVSEFLKQAWFIENEEQEYVQTLKSSKGGPGSAVSPYPTFNPSSDV-NH2 [Peptide 1]

From patent US20250345392A1, “ANNEXIN A1 LIQUID PHARMACEUTICAL COMPOSITION” (ResoTher Pharma A/S, priority 2022, published 2025)
